Data published in patent US20020192233A1, “Human T cell response to MHC-binding motif clusters” (priority 2000, published 2002).

Tests used:
[1] = test system: peripheral blood mononuclear cells from Mtb-immune (PPD skin-test positive) subjects; type: cell-based, human; settings: for Phil # responders (n = 38) / Phil % responders (n = 38): Philippines cohort; for Phil # responders (n = 38) / Phil % responders (n = 38) / Prov # responders (n = 22) / Prov % responders (n = 22): positive if SI≧2.0, peptide 1 and 10 μg/ml; for Prov # responders (n = 22) / Prov % responders (n = 22): Providence cohort; for number of Mtb-immune responders (proliferative response): all 40 Mtb-immune subjects; for number of Mtb-immune responders (proliferative response) / % responders among Mtb-immune subjects: SI≧2.0
[2] = test system: peripheral blood mononuclear cells from Mtb-naïve (PPD skin-test negative) subjects; assay: Lymphoproliferation assay ([3H]thymidine, stimulation index), Mtb-naïve group; type: cell-based, human; settings: 19 Mtb-naïve controls; SI≧2.0

## AELPGVDPDKDVD (listed as Mycobacterium tuberculosis) [16-3, aa 54-66 of 16 kDa Mtb protein]
[1]
  Phil # responders (n = 38): 0
  Phil % responders (n = 38): 0%
  Prov # responders (n = 22): 1
  Prov % responders (n = 22): 3%
  number of Mtb-immune responders (proliferative response): one

## ALYLLDGLRAQDD (listed as Mycobacterium tuberculosis) [32-2, aa 35-47 of 32 kDa Mtb protein (Antigen 85A)]
[1]
  Phil # responders (n = 38): 3
  Phil % responders (n = 38): 8%
  Prov # responders (n = 22): 2
  Prov % responders (n = 22): 5%

## CEVWSNVSETISGPRLYGEM (listed as Mycobacterium tuberculosis) [14-5, aa 74-93 of 14 kDa Mtb protein]
[1]
  Phil # responders (n = 38): 2
  Phil % responders (n = 38): 5%
  Prov # responders (n = 22): 2
  Prov % responders (n = 22): 5%

## EYWGAQLNAMKP (listed as Mycobacterium tuberculosis) [32-11, aa 265-276 of 32 kDa Mtb protein (Antigen 85A)]
[1]
  Phil # responders (n = 38): 3
  Phil % responders (n = 38): 8%
  Prov # responders (n = 22): 1
  Prov % responders (n = 22): 3%

## FAYGSFVRTVSLPVGA (listed as Mycobacterium tuberculosis) [16-5, aa 92-107 of 16 kDa Mtb protein]
[1]; 40 Mtb-immune subjects
  % responders among Mtb-immune subjects: 28%
[1]
  Phil # responders (n = 38): 4
  Phil % responders (n = 38): 10%
  Prov # responders (n = 22): 7
  Prov % responders (n = 22): 18%
  number of Mtb-immune responders (proliferative response): six
[2]
  Mtb-naïve controls who responded: none

## FSELFAAFPSFAGLRPTFDT (listed as Mycobacterium tuberculosis) [16-2, aa 17-36 of 16 kDa Mtb protein]
[1]
  Phil # responders (n = 38): 4
  Phil % responders (n = 38): 10%
  Prov # responders (n = 22): 1
  Prov % responders (n = 22): 3%

## GILTVSVAVSEGKPTEK (listed as Mycobacterium tuberculosis) [16-6, aa 119-135 of 16 kDa Mtb protein]
[1]
  Phil # responders (n = 38): 2
  Phil % responders (n = 38): 5%
  Prov # responders (n = 22): 1
  Prov % responders (n = 22): 3%

## GSFGSAPSNGWLKLGLVEFG (listed as Mycobacterium tuberculosis) [14-2, aa 19-38 of 14 kDa Mtb protein]
[1]
  Phil # responders (n = 38): 6
  Phil % responders (n = 38): 15%
  Prov # responders (n = 22): 3
  Prov % responders (n = 22): 8%
  number of Mtb-immune responders (proliferative response): six

## GVFDFPDSGTHSW (listed as Mycobacterium tuberculosis) [32-10, aa 252-264 of 32 kDa Mtb protein (Antigen 85A)]
[1]
  Phil # responders (n = 38): 3
  Phil % responders (n = 38): 8%
  Prov # responders (n = 22): 2
  Prov % responders (n = 22): 5%

## IAIGGAATGIAAVLTDGNPP [19-3]
[1]
  Phil # responders (n = 38): 4
  Phil % responders (n = 38): 10%
  Prov # responders (n = 22): 3
  Prov % responders (n = 22): 8%
  number of Mtb-immune responders (proliferative response): six

## KFLEGFVRTSNIKFQD (listed as Mycobacterium tuberculosis) [32-9, aa 227-242 of 32 kDa Mtb protein (Antigen 85A)]
[1]
  Phil # responders (n = 38): 3
  Phil % responders (n = 38): 8%
  Prov # responders (n = 22): 3
  Prov % responders (n = 22): 8%
  number of Mtb-immune responders (proliferative response): six

## LAIYHPQQFVYAGAMSGLLD (listed as Mycobacterium tuberculosis) [32-7, aa 135-154 of 32 kDa Mtb protein (Antigen 85A)]
[1]
  Phil # responders (n = 38): 5
  Phil % responders (n = 38): 13%
  Prov # responders (n = 22): 6
  Prov % responders (n = 22): 15%
  number of Mtb-immune responders (proliferative response): six

## LKLGLVEFGGVAKLNAEVMS (listed as Mycobacterium tuberculosis) [14-3, aa 30-49 of 14 kDa Mtb protein]
[1]
  Phil # responders (n = 38): 3
  Phil % responders (n = 38): 8%
  Prov # responders (n = 22): 4
  Prov % responders (n = 22): 10%
  number of Mtb-immune responders (proliferative response): six

## LPVEYLQVPSPSMGR (listed as Mycobacterium tuberculosis) [32-1, aa 6-20 of 32 kDa Mtb protein (Antigen 85A)]
[1]
  Phil # responders (n = 38): 3
  Phil % responders (n = 38): 8%
  Prov # responders (n = 22): 2
  Prov % responders (n = 22): 5%

## LTIKAERTEQK (listed as Mycobacterium tuberculosis) [16-4, aa 74-84 of 16 kDa Mtb protein]
[1]
  Phil # responders (n = 38): 0
  Phil % responders (n = 38): 0%
  Prov # responders (n = 22): 5
  Prov % responders (n = 22): 13%

## MLGNAPSVVPNTTLGMHC (listed as Mycobacterium tuberculosis) [14-1, aa 1-18 of 14 kDa Mtb protein]
[1]
  Phil # responders (n = 38): 2
  Phil % responders (n = 38): 5%
  Prov # responders (n = 22): 2
  Prov % responders (n = 22): 5%

## PLLNVGKLIANNTRVWVY (listed as Mycobacterium tuberculosis) [32-8, aa 193-210 of 32 kDa Mtb protein (Antigen 85A)]
[1]; 40 Mtb-immune subjects
  % responders among Mtb-immune subjects: 25%
[1]
  Phil # responders (n = 38): 5
  Phil % responders (n = 38): 13%
  Prov # responders (n = 22): 0
  Prov % responders (n = 22): 0%
[2]
  Mtb-naïve controls who responded: none

## QAVMLGTGTPNRA (listed as Mycobacterium tuberculosis) [14-4, aa 56-68 of 14 kDa Mtb protein]
[1]
  Phil # responders (n = 38): 3
  Phil % responders (n = 38): 8%
  Prov # responders (n = 22): 1
  Prov % responders (n = 22): 3%

## QNVTGSVVCTTAAGNVN [19-2]
[1]
  Phil # responders (n = 38): 3
  Phil % responders (n = 38): 8%
  Prov # responders (n = 22): 4
  Prov % responders (n = 22): 10%
  number of Mtb-immune responders (proliferative response): six

## RHVKPTGSAVVGLSMAASSA (listed as Mycobacterium tuberculosis) [32-5, aa 113-132 of 32 kDa Mtb protein (Antigen 85A)]
[1]
  Phil # responders (n = 38): 2
  Phil % responders (n = 38): 5%
  Prov # responders (n = 22): 8
  Prov % responders (n = 22): 20%
  number of Mtb-immune responders (proliferative response): six

## RSLFPEFSELFAAFPSFAGL (listed as Mycobacterium tuberculosis) [16-1, aa 11-30 of 16 kDa Mtb protein]
[1]
  Phil # responders (n = 38): 4
  Phil % responders (n = 38): 10%
  Prov # responders (n = 22): 2
  Prov % responders (n = 22): 5%
  number of Mtb-immune responders (proliferative response): six

## SHYKITGTATGVD [19-5]
[1]
  Phil # responders (n = 38): 1
  Phil % responders (n = 38): 3%
  Prov # responders (n = 22): 3
  Prov % responders (n = 22): 8%

## SVVMPVGGQSSFYSDW (listed as Mycobacterium tuberculosis) [32-3, aa 67-82 of 32 kDa Mtb protein (Antigen 85A)]
[1]
  Phil # responders (n = 38): 5
  Phil % responders (n = 38): 13%
  Prov # responders (n = 22): 2
  Prov % responders (n = 22): 5%
  number of Mtb-immune responders (proliferative response): six

## TFLTSELPGWLQ (listed as Mycobacterium tuberculosis) [32-4, aa 99-110 of 32 kDa Mtb protein (Antigen 85A)]
[1]
  Phil # responders (n = 38): 2
  Phil % responders (n = 38): 5%
  Prov # responders (n = 22): 2
  Prov % responders (n = 22): 5%

## TT: tetanus toxoid, control antigen (Connaught) [reference compound]
[1]
  SI range: 2-182
[1]; control antigen 5 μg/ml, 40 Mtb-immune subjects
  Mtb-immune subjects showing an in vitro proliferative response: All but six

## VAVAGAAILVAGLSGCSSN [19-1]
[1]
  Phil # responders (n = 38): 5
  Phil % responders (n = 38): 13%
  Prov # responders (n = 22): 8
  Prov % responders (n = 22): 20%

## VGLSMAASSALTLAIYHPQQ (listed as Mycobacterium tuberculosis) [32-6, aa 123-142 of 32 kDa Mtb protein (Antigen 85A)]
[1]
  Phil # responders (n = 38): 4
  Phil % responders (n = 38): 10%
  Prov # responders (n = 22): 6
  Prov % responders (n = 22): 15%
  number of Mtb-immune responders (proliferative response): six

## VSETISGPRLYGEMTMQGTR (listed as Mycobacterium tuberculosis) [14-6, aa 80-99 of 14 kDa Mtb protein]
[1]
  Phil # responders (n = 38): 1
  Phil % responders (n = 38): 3%
  Prov # responders (n = 22): 1
  Prov % responders (n = 22): 3%

## VTLGYTSGTGQ (listed as Mycobacterium tuberculosis) [19-4, aa 107-117 of 19 kDa Mtb protein]
[1]
  Phil # responders (n = 38): 2
  Phil % responders (n = 38): 5%
  Prov # responders (n = 22): 3
  Prov % responders (n = 22): 8%

## phytohemagglutinin [reference compound]
[1]; PHA 1 μg/ml, the 41 subjects who were tested
  response to mitogen: robust response
